Reference: article PMC10515640, “Structure-Based Optimization of Covalent, Small-Molecule Stabilizers of the 14-3-3σ/ERα Protein–Protein Interaction from Nonselective Fragments” (Journal of the American Chemical Society, 2023)

Legend:
[1] = target: T1, 14-3-3σ (Homo sapiens, UniProt P31947); experiment: Mass spectrometry dose response, compound binding to 14-3-3σ in the absence of peptide (apo); conditions: 100 nM compound, 100 nM 14-3-3σ
T1 construct: The 14-3-3 σ isoform (full-length for mass spectrometry and fluorescence anisotropy assays, ΔC for crystallography); made in house; host or cells: E. coli Rosetta 2(DE3)pLysS, pPROEX HTb vector
T1 sequence (P31947 1-248): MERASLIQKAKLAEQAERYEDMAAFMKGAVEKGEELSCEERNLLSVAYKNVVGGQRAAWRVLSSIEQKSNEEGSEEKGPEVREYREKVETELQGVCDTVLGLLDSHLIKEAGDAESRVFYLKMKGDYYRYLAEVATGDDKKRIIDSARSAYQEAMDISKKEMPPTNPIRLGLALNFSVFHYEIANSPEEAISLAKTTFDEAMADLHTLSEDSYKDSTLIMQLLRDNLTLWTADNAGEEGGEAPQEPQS
From the text: (§1) Two orthogonal assays were developed for screening. For the primary assay, mass spectrometry (MS) was used to monitor the formation of the covalent bond between the compound and the native cysteine (Cys38 on 14-3-3σ) (Figure 1D). The assay was first performed in the absence of peptide to determine binding to 14-3-3σ only (apo screening, D1) and then in the presence of both 14-3-3σ and the peptide as an indication of how much the peptide stabilized compound binding (D2). […] As a secondary assay, fluorescence anisotropy (FA) was used. In this case, compounds were titrated to mixtures of 14-3-3σ and FAM-labeled peptides. […] Thus, the two assays are highly complementary; the MS assay reports on compound binding and the FA assay reports on peptide binding. […]
(§2) Mass spectrometry dose response assays were performed on a Waters Acquity UPLC/ Xevo G2-XS Q-Tof mass spectrometer. A Waters UPLC Protein BEH-C4 Column (300 Å, 1.7 μm, 2.1 mm x 50 mm) was used to desalt the samples prior to application on the mass spectrometer. For 19-point MS dose responses, 50 mM compound stocks in DMSO were serially diluted in 3-fold increment in a master plate, then 1000 nl of the compounds were transferred in the assay plates. Master mixes containing 100 nM full-length wild type 14-3-3σ in the absence or presence of […]
(§3) Assay buffer was TRIS (10 mM, pH 8.0) and final volume per well was 50 μl, with final top concentration of compounds dose response series at 1 mM. The reaction mixtures were incubated for 1h at rt before subjected to MS. Four measurements (1h, 8h, 16h, 24h) were performed for time-course experiments. The injection volume for each sample was 6 μl. 24 μl of sample were needed for the time-course experiments, so the total volume in the assay plate was adjusted to 50 μl, to account for the dead volume in the injections. Data collection and automated processing followed a custom workflow, as previously described.1 z Plots were created using GraphPad Prism with the log(agonist) vs. response (variable slope, four parameters) fitting model. […]

[2] = target: T2, 14-3-3σ/ERα (Homo sapiens, UniProt P03372+P31947); experiment: Mass spectrometry dose response, compound binding to 14-3-3σ in the presence of ERα phosphopeptide; conditions: 100 nM compound, 100 nM 14-3-3σ, ERα-peptide 2 µM
T2 construct: The 14-3-3 σ isoform (full-length for mass spectrometry and fluorescence anisotropy assays, ΔC for crystallography); made in house; host or cells: E. coli Rosetta 2(DE3)pLysS, pPROEX HTb vector
From the text: as §1, §2, §3

[3] = target: T3, 14-3-3σ/C-RAF (Homo sapiens, UniProt P31947); experiment: Mass spectrometry dose response, compound binding to 14-3-3σ in the presence of C-RAF phosphopeptide; conditions: 100 nM compound, 100 nM 14-3-3σ, C-RAF peptide 18 µM
T3 construct: The 14-3-3 σ isoform (full-length for mass spectrometry and fluorescence anisotropy assays, ΔC for crystallography); made in house; host or cells: E. coli Rosetta 2(DE3)pLysS, pPROEX HTb vector
T3 sequence (P31947 1-248): T1 sequence (P31947 1-248)
From the text: as §1, §2, §3

[4] = target: T2, 14-3-3σ/ERα; experiment: Fluorescence anisotropy compound titration, FAM-labeled ERα peptide; format: binding; conditions: 10 nM ERα-FAM labeled peptide, 1 µM 14-3-3σ, overnight incubation (24 h); read-out: EC50 value ERα (FA compound titration)
From the text: as §1
(§4) diluted in buffer (10 mM HEPES, pH 7.5, 150 mM NaCl, 0.1% Tween20, 1 mg/mL Bovine Serum Albumin (BSA; Sigma-Aldrich). Final DMSO in the assay was always 1%. Dilution series of 14-3-3 proteins or compounds were made in […]
(§5) Compound titrations were made by titrating the compound in a 2-fold dilution series (starting at 500 or 1000 µM) to a mix of fluorescein-labeled peptide (10 nM) and 14-3-3σ (concentration at approximately the EC20 to EC30 value of the protein-peptide complex; 1 µM for ERα and 5 µM for C-RAF). Using the ~EC25 value makes the assay sensitive for measuring an increase in PPI formation. Fluorescence anisotropy measurements were performed directly and after overnight incubation at room temperature. […]
(§6) Wells containing only FAM-peptide were used to set as G-factor at 35 mP. Data reported are at endpoint. EC50 and apparent Kd values were obtained from fitting the data with a four-parameter logistic model (4PL) in GraphPad Prism 7 for Windows. Data was obtained and averaged based on either three (compound titrations) or two (protein titrations) independent experiments.

[5] = target: T3, 14-3-3σ/C-RAF; experiment: Fluorescence anisotropy compound titration, FAM-labeled C-RAF peptide; format: binding; conditions: 10 nM C-RAF-FAM labeled peptide, 5 µM 14-3-3σ, overnight incubation; read-out: EC50 value C-RAF (FA compound titration)
From the text: as §1, §4, §5, §6

Row | Compound | Percentage (%) bound of compound to 14-3-3σ, APO 1h [1] [%] | Percentage (%) bound of compound to 14-3-3σ, APO 8h [1] [%] | Percentage (%) bound of compound to 14-3-3σ, APO 16h [1] [%] | Percentage (%) bound of compound to 14-3-3σ, APO 24h [1] [%] | Percentage (%) bound of compound to 14-3-3σ, ERα 1h [2] [%] | Percentage (%) bound of compound to 14-3-3σ, ERα 8h [2] [%] | Percentage (%) bound of compound to 14-3-3σ, ERα 16h [2] [%] | Percentage (%) bound of compound to 14-3-3σ, ERα 24h [2] [%] | Percentage (%) bound of compound to 14-3-3σ, CRAF 1h [3] [%] | Percentage (%) bound of compound to 14-3-3σ, CRAF 8h [3] [%] | Percentage (%) bound of compound to 14-3-3σ, CRAF 24h ([3]; 24h) [%] | Percentage (%) bound of compound to 14-3-3σ, CRAF 24h ([3]; head prints 24h) [%] | EC50 [4] [µM] | EC50 [5] [µM]
1 | CC(C)(Oc1ccc(Cl)cc1)C(=O)N1CCC(CCNC(=O)CCl)CC1 [compound 28] | 1.0 | 1.0 | 1.9 | 1.9 | 0.3 | 1.5 | 4.2 | 10.9 | 3.1 | 7.5 | 40.1 | 22.1 | 24 ± 16 | 40 ± 1
2 | O=C(CCl)NCC1CCN(C(=O)C2(Oc3ccccc3)CCCC2)CC1 [compound 119] | 0 | 1.0 | 1.0 | 2.5 | 1.9 | 5.3 | 10.9 | 21.0 | 6.2 | 19.7 | 53.6 | 28.5 | 24 ± 2 | 18 ± 0.3
3 | O=C(CCl)NCC1CCN(C(=O)C2(Nc3ccccc3)CCCC2)CC1 [compound 120] | 0 | 0 | 0 | 0 | 0 | 0 | 0 | 4.5 | 0 | 0 | 0 | 0 | > 150 | > 150
4 | O=C(CCl)NCC1CCN(C(=O)C2(Nc3ccc(Cl)cc3)CCCCC2)CC1 [compound 123] | 0.0 | 1.0 | 1.0 | 1.9 | 3.4 | 8.3 | 20.8 | 63.9 | 1.0 | 1.9 | 3.5 | 1.9 | 8 ± 1 | 59 ± 4
5 | CC(C)(Oc1ccc(Cl)cc1)C(=O)N1CCC(CCCNC(=O)CCl)CC1 [compound 29] | 0 | 0 | 0 | 0 | 0.4 | 1.0 | 3.1 | 11.0 | 1.0 | 1.0 | 18.9 | 7.1 | 9 ± 0.4 | 142 ± 40
6 | O=C(CCl)NCC1CCN(C(=O)C2(Nc3ccc(Cl)cc3)CCC(F)(F)CC2)CC1 [compound 125] | 0.4 | 1.1 | 2.1 | 6.2 | 13.8 | 30.0 | 64.6 | 87.5 | 4.9 | 7.6 | 23.2 | 12.4 | 12 ± 2 | > 150
7 | O=C(CCl)NCC1CCN(C(=O)C2(Oc3ccc(Cl)cc3)CCCC2)CC1 [compound 117] | 0 | 0.3 | 0.8 | 1.1 | 5.6 | 15.7 | 34.4 | 63.7 | 10.7 | 21.4 | 47.3 | 33.7 | 15 ± 2 | 32 ± 8
8 | C=CS(=O)(=O)NCC1CCN(C(=O)C(C)(C)Oc2ccc(Cl)cc2)CC1 [compound 17] | 0 | 0 | 1.0 | 1.0 | 0.8 | 4.7 | 11.0 | 18.8 | 4.7 | 8.0 | 32.4 | 11.6 | 33 ± 1 | –
9 | O=C(CCl)NCC1CCN(C(=O)C2(Nc3ccccc3)CCCCC2)CC1 [compound 121] | 0 | 0 | 0 | 0 | 0 | 0 | 0 | 0 | 0 | 0 | 0 | 0 | > 150 | –
